Laboratory results from patent US4844897A, “Anti-tumor protease preparations” (Maeda; Hiroshi, priority 1985, dated 1989).

Tests used:
[1] = tested on: α1 anti-trypsin, α2 antichymotrypsin, α2 macroglobulin, etc.; assay: Inhibition of protease activity by protease-inhibiting substances in vivo
GMK = assay: Cytotoxicity induced by protease activity in the presence of serum; type: cell-based, African green monkey
Experimental: (§1) Cell toxicity of various proteases against cultured cells and influences of serum on the cell toxicity:
(§2) The present inventors have investigated cell-killing effects of various proteases by adding the proteases to various cultured cells, and also at the same time the effect of serum on the cytotoxicity.
(§3) A 0.5 ml aliquot of RPMI-1640 medium or Eagle's NEM medium containing 10% bovine fetal calf serum was placed in a Lab Tech plastic chamber of 8-well type, (Falcon Inc.), and suspensions of various tumor cells, each containing about 1×10^4 cells in 0.5 ml, were added thereto and cultured in an incubator at 37° C. in 5% CO2 (95% being air). After 24 hours, the cells in the Lab Tech chambers were allowed to culture under three different condition. In group A, they were replaced in RPMI medium with 10% fetal calf serum containing different concentrations of test protease. In group B, the same medium with appropriate protease was used but devoid of serum; In group C, a control medium was used with 10% serum but without protease. One hour and 24 hours after the culturing cytotoxicity, observed microscopically, was determined by counting the number of cells and by morphological investigation.
(§4) (b) Numerals show reciprocal number of dilution for obtaining the
(§5) equivalent effect after 24hour treatment on the basis of the effect of th […]

tumors = assay: Anti-tumor action of proteases (general statement); type: in vivo
Vero = assay: Cytotoxicity induced by protease activity in the presence of serum; type: cell-based, monkey
Experimental: as §1, §2
(§6) After 24 hours, the cells in the Lab Tech chambers were allowed to culture under three different condition. In group A, they were replaced in RPMI medium with 10% fetal calf serum containing different concentrations of test protease. In group B, the same medium with appropriate protease was used but devoid of serum; In group C, a control medium was used with 10% serum but without protease. One hour and 24 hours after the culturing cytotoxicity, observed microscopically, was determined by counting the number of cells and by morphological investigation.

WISH = assay: as above; type: cell-based, human
Experimental: as §1, §2, §6

HeP2 = assay: as above; type: cell-based, human
Experimental: as §1, §2, §6

HSG = assay: as above; type: cell-based, human
Experimental: as §1, §2, §6

HeLa = assay: as above; type: cell-based
Experimental: as §1, §2, §6

C6 = assay: as above; type: cell-based, rat
Experimental: as §1, §2, §6

[2] = tested on: African green monkey kidney (Epithelial cells); assay: Toxicity of various proteases against cultured cells, serum-free; type: cell-based; details: normal, absence of serum, 24-hour treatment
Experimental: as §1, §2, §6

Human fibroblast (WISH) = assay: as above; type: cell-based; details: normal cell, absence of serum, 24-hour treatment
Experimental: as §1, §2, §6

[3] = tested on: Rat hepatocytes (Liver cells); assay: as above; type: cell-based; details: normal, absence of serum, 24-hour treatment
Experimental: as §1, §2, §6

[4] = tested on: Mouse leukemia (RL.male. 1); assay: as above; type: cell-based; details: absence of serum, 24-hour treatment
Experimental: as §1, §2, §6

[5] = tested on: Human normal T-lymphocytes; assay: as above; type: cell-based; details: absence of serum, 24-hour treatment
Experimental: as §1, §2, §6

[6] = tested on: Human submaxillary gland tumor (HSG); assay: as above; type: cell-based; details: absence of serum, 24-hour treatment
Experimental: as §1, §2, §6

[7] = tested on: Human fetus lung fibroblast (HEL); assay: as above; type: cell-based; details: normal cell, absence of serum, 24-hour treatment
Experimental: as §1, §2, §6

[8] = tested on: Burkitt's lymphoma (Raji); assay: as above; type: cell-based; details: absence of serum, 24-hour treatment
Experimental: as §1, §2, §6

[9] = tested on: Monkey kidney fibroblast (Vero); assay: as above; type: cell-based; details: normal cell, absence of serum, 24-hour treatment
Experimental: as §1, §2, §6

[10] = tested on: Cervical canal cancer (HeLa); assay: as above; type: cell-based; details: absence of serum, 24-hour treatment
Experimental: as §1, §2, §6

Rat neuroblastoma (C6) = assay: as above; type: cell-based; details: absence of serum, 24-hour treatment
Experimental: as §1, §2, §6

[11] = tested on: Human laryngeal carcinoma (HEp-2); assay: as above; type: cell-based; details: absence of serum, 24-hour treatment
Experimental: as §1, §2, §6

Meth A tumor = assay: Effectiveness on mouse solid tumor (methylcholanthrene-induced Meth A tumor); type: in vivo, Balb/C mouse; details: injected into solid tumors, 0.1 ml, two administrations (once for each day); FIG. 3
Experimental: Anti-tumor actions of various proteases: Effectiveness on mouse solid tumor (i.e., effect on methylcholanthrene-induced tumor (Meth A tumor):
The diameters of the tumors after two administrations (once for each day) were measured.

HEL = assay: Cytotoxicity induced by protease activity in the presence of serum; type: cell-based, human
Experimental: as §1, §2, §3, §4, §5

tumor cell = assay: Effect of serum on tumor cell toxicity with time; type: cell-based; details: presence of serum; 24-hour vs one-hour treatment
Experimental: as §1, §2, §6

Molecule	inhibition of activity by protease-inhibiting substances in vivo [1]	Cytotoxicity in the presence of serum with time (reciprocal number of dilution for equivalent effect after 24-hour vs one-hour treatment) (GMK)	anti-tumor action / effect on propagation of tumors (tumors)	Cytotoxicity in the presence of serum with time (reciprocal number of dilution for equivalent effect after 24-hour vs one-hour treatment) (Vero)	Cytotoxicity in the presence of serum with time (reciprocal number of dilution for equivalent effect after 24-hour vs one-hour treatment) (WISH)	Cytotoxicity in the presence of serum with time (reciprocal number of dilution for equivalent effect after 24-hour vs one-hour treatment) (HeP2)	Cytotoxicity in the presence of serum with time (reciprocal number of dilution for equivalent effect after 24-hour vs one-hour treatment) (HSG)	Cytotoxicity in the presence of serum with time (reciprocal number of dilution for equivalent effect after 24-hour vs one-hour treatment) (HeLa)	Cytotoxicity in the presence of serum with time (reciprocal number of dilution for equivalent effect after 24-hour vs one-hour treatment) (C6)	Minimum effective concentration [2]	Minimum effective concentration (Human fibroblast (WISH))	Minimum effective concentration [3]	Minimum effective concentration [4]	Minimum effective concentration [5]	Minimum effective concentration [6]	Minimum effective concentration [7]	Minimum effective concentration [8]	Minimum effective concentration [9]	Minimum effective concentration [10]	action against tumor propagation (Meth A solid tumor) (Meth A tumor)	also measured
Trypsin	completely inhibited	2	no anti-tumor action	2-4	4	0-4	2-4	2-4	2	0.39 µg/mL	1.56 µg/mL	> 5.0 µg/mL	0.78 µg/mL	0.39 µg/mL	0.39 µg/mL	0.20 µg/mL	0.05 µg/mL	1.56 µg/mL	0.78 µg/mL	no substantial action against the tumor propagation	Minimum effective concentration (Rat neuroblastoma (C6)): 1.56 µg/mL; Minimum effective concentration [11]: 1.56 µg/mL; Cytotoxicity in the presence of serum with time (reciprocal number of dilution for equivalent effect after 24-hour vs one-hour treatment) (HEL): 2; cytotoxic effects in 24-hour treatment than one-hour treatment (tumor cell): no substantial enhancement
chymotrypsin	completely inhibited	–	no anti-tumor action	–	–	–	–	–	–	–	–	–	–	–	–	–	–	–	–	–	–
pepsin	completely inhibited	–	no anti-tumor action	–	–	–	–	–	–	–	–	–	–	–	–	–	–	–	–	no substantial action against the tumor propagation	–
Papain: protease of plant origin (protein, UniProt P00784 134-345, looked up) Papain: IPEYVDWRQKGAVTPVKNQGSCGSCWAFSAVVTIEGIIKIRTGNLNEYSEQELLDCDRRSYGCNGGYPWSALQLVAQYGIHYRNTYPYEGVQRYCRSREKGPYAAKTDGVRQVQPYNEGALLYSIANQPVSVVLEAAGKDFQLYRGGIFVGPCGNKVDHAVAAVGYGPNYILIKNSWGTGWGENGYIRIKRGTGNSYGVCGLYTSSFYPVKN	completely inhibited	2	no anti-tumor action	2-4	2	0-4	2-4	2-4	2	0.38 µg/mL	1.52 µg/mL	> 5.0 µg/mL	0.82 µg/mL	0.37 µg/mL	0.38 µg/mL	0.20 µg/mL	0.06 µg/mL	1.58 µg/mL	0.84 µg/mL	no substantial action against the tumor propagation	Minimum effective concentration (Rat neuroblastoma (C6)): 1.60 µg/mL; Minimum effective concentration [11]: 1.60 µg/mL; Cytotoxicity in the presence of serum with time (reciprocal number of dilution for equivalent effect after 24-hour vs one-hour treatment) (HEL): 2; cytotoxic effects in 24-hour treatment than one-hour treatment (tumor cell): no substantial enhancement
